“Also recorded” adds a separate entry of the source. Peptide text beside a SMILES is read from it. * marks the point of attachment. Cbz = O=C(OCc1ccccc1)*
Key:
[1] = system: PPARγ2 (wild type, Flag-tagged)
CML patients = conditions: Fitter S, et al. (2010); cited from earlier work
[2] = system: mesenchymal stromal cells; conditions: Fitter S, et al. (2008); cited from earlier work
3T3-L1 cells = assay: Adipocyte differentiation of 3T3-L1 cells, oil red O staining; format: cell-based, mouse
Procedure: FIGS. 1A-E illustrate that c-Abl is required for adipocyte differentiation. (A) c-Abl activity increases during adipogenesis. 3T3-L1 adipoblasts were induced to differentiate with medium containing 5 μg/ml Insulin, 1 μM Dexamethasone and 0.5 mM IBMX. Cells were lysed at the indicated times and protein levels were analyzed by Western blotting. The proteasomal subunit PSMA4 served as a loading control. […] Cells were stained with oil red O and photographed at day 8. (C) c-Abl is required in adipocyte differentiation. 3T3-L1 expressing shRNA against either GFP or c-Abl were induced to differentiate and stained with oil red 0 at day 10. (D) c-Abl is required for expression of PPARγ and its target genes during adipogenesis. 3T3-L1 cells expressing shRNA against either GFP or c-Abl were induced to differentiate as in (A). Cells were lysed at the indicated times and protein levels were analyzed by Western blotting. (E) c-Abl is required for transcription of PPARγ pro-adipogenic target genes but not for transcription of PPARγ itself. At day 4 of differentiation, RNA from 3T3-L1 cells was analyzed for mRNA expression of the indicated genes by quantitative PCR.
FIG. 15 are photographs illustrating differentiation of 3T3-L1 preadipocytes with or without Chk1 inhibitor, UCN-01. […]

PPARγ2 = PPARγ2 accumulation after proteasomal inhibition in c-Abl-depleted 3T3-L1 cells (immunoblotting); format: cell-based, mouse; conditions: c-Abl-depleted 3T3-L1, day 5 of differentiation, 25 μg MG-132, lysed after 5 h
Procedure: FIGS. 2A-C illustrate that c-Abl prolongs PPARγ2 half-life. (A) Proteasomal inhibition in mid-differentiation results in PPARγ2 accumulation. 3T3-L1 cells expressing shRNA to GFP (control) or c-Abl were induced to differentiate using insulin, dexamethasone and IBMX. On day 5, cells were treated with 25 μg MG-132 and lysed after 5 h. Protein levels were analyzed by immunoblotting. (B) c-Abl stabilizes PPARγ2. HEK293 cells were transfected with plasmids expressing HA-PPARγ2 with or without active c-Abl. Twenty-four hours after transfection, cells were treated with 20 μg/ml cycloheximide for different time points. […] The ratio between immunoprecipitated poly-ubiquitinated PPARγ2 ladder and PPARγ2 protein level from 3 independent experiments was quantified (*** −p<0.005).
The present inventors investigated whether c-Abl might play a role in PPARγ2 accumulation. […] Next, the present inventors measured PPARγ2 protein half-life in the presence or absence of an active form of c-Abl (41-81 c-Abl). […] To investigate the possibility that c-Abl supports PPARγ2 stabilization via inhibition of the poly-ubiquitination of PPARγ2, an octameric tandem fusion of HA-tagged ubiquitin was co-expressed together with Flag-tagged PPARγ2 with or without active c-Abl and the pattern of the poly-ubiquitinated PPARγ2 ladder was analyzed.

c-Abl Δ1-81 (active form of c-Abl)
tyrosine phosphorylation of PPARγ2 detected with anti-phosphotyrosine antibody (PY20) after immunoprecipitation [1]: unlike HA-PPARγ2, HA-PPARγ1 was only poorly phosphorylated by c-Abl (FIG. 3D). Similar results were obtained using Flag-PPARγ2
tyrosine phosphorylation detected with anti-phosphotyrosine antibody (PY20) after immunoprecipitation using anti-Flag beads (PPARγ2 P12A variant): the P12A variant was inefficient in binding to c-Abl and in undergoing phosphorylation by the kinase
tyrosine phosphorylation detected with anti-phosphotyrosine antibody (PY20) after immunoprecipitation using anti-HA beads (HA-PPARγ1): HA-PPARγ1 was only poorly phosphorylated by c-Abl

Cc1ccc(NC(=O)c2ccc(CN3CCN(C)CC3)cc2)cc1Nc1nccc(-c2cccnc2)n1 [STI-571, imatinib]
fat accumulation (CML patients): associated with fat accumulation
insulin sensitivity (CML patients): improved insulin sensitivity
adipocytic differentiation of mesenchymal stromal cells [2]: promote adipocytic differentiation
adipogenesis (adipocyte differentiation) (3T3-L1 cells; 3T3-L1 induced with insulin, dexamethasone, IBMX, STI-571 added 7 hours after differentiation onset until day 5, oil red O at day 8, even at low inhibitor concentration): markedly reduced; also recorded: inhibits adipocyte differentiation

CC(C)C[C@@H](C=O)NC(=O)[C@H](CC(C)C)NC(=O)[C@H](CC(C)C)NC(=O)OCc1ccccc1 [MG-132] (Cbz-Leu-Leu-Leu-aldehyde)
PPARγ2 protein level (PPARγ2): markedly increased

CN[C@@H]1C[C@H]2O[C@@](C)([C@@H]1OC)n1c3ccccc3c3c4c(c5c6ccccc6n2c5c31)C(=O)N[C@@H]4O [UCN-01]
differentiation of 3T3-L1 preadipocytes (3T3-L1 cells; with or without Chk1 inhibitor UCN-01 (FIG. 15)): completely inhibit
